# Results published in US9108983B2, “Pyrrole compounds, a process for their preparation and pharmaceutical compositions containing them” (LES LABORATOIRES SERVIER, priority 2013, dated 2015).
# Counter-ions that a name gives are not always drawn.
# What was measured:
# Bcl-2 protein = Bcl-2 protein (histag-Bcl-2, UniProtKB P10415) (Homo sapiens (Human), UniProt P10415); assay: Inhibition of Bcl-2 by the fluorescence polarisation technique; type: binding; details: incubation for 2 hours, read-out: IC50 (nM) Bcl-2 FP
# Summary of the method: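 In pH 7.4 buffer (Hepes 10 mM, NaCl 150 mM, Tween20 0.05%), test compounds at increasing concentrations competed with a fluorescein peptide (1.00×10^−8 M final) for histag-Bcl-2 (2.50×10^−8 M final). Readout was fluorescence polarisation after a 2 h incubation.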
# [1] = test system: RS4;11 leukaemia tumour line; assay: In vitro cytotoxicity (Microculture Tetrazolium Assay); type: cell-based; details: Homo sapiens, RS4-11, 48 h, RS4;11 cells, exposed for 48 hours, cell viability; read-out: IC50 (nM) MTT RS4;11
# Protocol: The cytotoxicity studies were carried out on the RS4;11 leukaemia tumour line.
# The cells are distributed onto microplates and exposed to the test compounds for 48 hours.
# The cell viability is then quantified by a colorimetric assay, the Microculture Tetrazolium Assay (Cancer Res., 1987, 47, 939-942).
# Bcl-2 protein, sequence (P10415 whole entry): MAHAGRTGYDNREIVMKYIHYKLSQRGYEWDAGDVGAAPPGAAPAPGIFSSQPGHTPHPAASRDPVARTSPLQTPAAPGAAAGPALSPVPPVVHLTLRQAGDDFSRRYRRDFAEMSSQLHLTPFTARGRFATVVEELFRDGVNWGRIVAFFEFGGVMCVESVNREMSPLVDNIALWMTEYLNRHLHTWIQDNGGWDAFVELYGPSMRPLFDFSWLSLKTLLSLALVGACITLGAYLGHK
SMILES,IC50 (Bcl-2 protein) [nM],IC50 [1] [nM]
"COc1ncc(N(C(=O)c2cc(-c3cc(F)ccc3C(=O)N3Cc4ccccc4C[C@H]3CN3CCOCC3)n(C)c2C)c2ccc(O)cc2)cn1 [Example 426, 5-(5-Fluoro-2-{[(3S)-3-(morpholin-4-ylmethyl)-3,4-dihydroisoquinolin-2(1H)-yl]carbonyl}phenyl)-N-(4-hydroxyphenyl)-N-(2-methoxypyrimidin-5-yl)-1,2-dimethyl-1H-pyrrole-3-carboxamide]",5.2,139
"COc1ccc(C(=O)N2Cc3ccccc3C[C@H]2CN2CCOCC2)c(-c2cc(C(=O)N(c3ccc(O)cc3)c3cc(C#N)n(C)c3C)c(C)n2C)c1 [Example 408, N-(5-Cyano-1,2-dimethyl-1H-pyrrol-3-yl)-N-(4-hydroxyphenyl)-5-(5-methoxy-2-{[(3S)-3-(morpholin-4-ylmethyl)-3,4-dihydroisoquinolin-2(1H)-yl]carbonyl}phenyl)-1,2-dimethyl-1H-pyrrole-3-carboxamide hydrochloride]",5.4,4.46
"Cc1c(C(=O)N(C)c2ccc(O)cc2)cc(-c2cc(CCNC(=O)Cc3ccccc3)ccc2C(=O)N2Cc3ccccc3C[C@H]2C)n1C [Example 57, N-(4-Hydroxyphenyl)-N,1,2-trimethyl-5-(2-{[(3R)-3-methyl-3,4-dihydroisoquinolin-2(1H)-yl]carbonyl}-5-{2-[(phenylacetyl)amino]ethyl}phenyl)-1H-pyrrole-3-carboxamide]",80,> 600
"COc1ccc(C(=O)N2Cc3ccccc3C[C@H]2C)c(-c2cc(C(=O)N(c3ccncc3)c3ccc(O)cc3)c(C)n2C)c1 [Example 20, N-(4-Hydroxyphenyl)-5-(5-methoxy-2-{[(3R)-3-methyl-3,4-dihydroisoquinolin-2(1H)-yl]carbonyl}phenyl)-1,2-dimethyl-N-(pyridin-4-yl)-1H-pyrrole-3-carboxamide hydrochloride]",4.9,164
"COc1cc(C(=O)N2Cc3ccccc3C[C@H]2CN2CCOCC2)c(-c2cc(C(=O)N(c3ccc(O)cc3)c3cc(C#N)n(C)c3C)c(C)n2C)cc1F [Example 440, N-(5-Cyano-1,2-dimethyl-1H-pyrrol-3-yl)-5-(5-fluoro-4-methoxy-2-{[(3S)-3-(morpholin-4-ylmethyl)-3,4-dihydroisoquinolin-2(1H)-yl]carbonyl}phenyl)-N-(4-hydroxyphenyl)-1,2-dimethyl-1H-pyrrole-3-carboxamide hydrochloride]",2.6,13.6
"COc1cc(C(=O)N2Cc3ccccc3C[C@H]2C)c(-c2cc(C(=O)N(c3ccc(O)cc3)c3cnn(C)c3)c(C)n2C)cc1F [Example 62, 5-(5-Fluoro-4-methoxy-2-{[(3R)-3-methyl-3,4-dihydroisoquinolin-2(1H)-yl]carbonyl}phenyl)-N-(4-hydroxyphenyl)-1,2-dimethyl-N-(1-methyl-1H-pyrazol-4-yl)-1H-pyrrole-3-carboxamide]",14.3,127
"Cc1c(C(=O)N(c2ccncc2)c2ccc(O)cc2)cc(-c2cc3c(cc2C(=O)N2Cc4ccccc4C[C@H]2C)OCO3)n1C [Example 61, N-(4-Hydroxyphenyl)-1,2-dimethyl-5-(6-{[(3R)-3-methyl-3,4-dihydroisoquinolin-2(1H)-yl]carbonyl}-1,3-benzodioxol-5-yl)-N-(pyridin-4-yl)-1H-pyrrole-3-carboxamide hydrochloride]",4.5,37.8
"Cc1c(C(=O)N(c2ccc(O)cc2)c2cnn(C)c2)cc(-c2cc(Cl)ccc2C(=O)N2Cc3ccccc3C[C@H]2C)n1CCN1CCOCC1 [Example 411, 5-(5-Chloro-2-{[(3R)-3-methyl-3,4-dihydroisoquinolin-2(1H)-yl]carbonyl}phenyl)-N-(4-hydroxyphenyl)-2-methyl-N-(1-methyl-1H-pyrazol-4-yl)-1-[2-(morpholin-4-yl)ethyl]-1H-pyrrole-3-carboxamide hydrochloride]",5.5,32.8
"COCCn1c(-c2cc3c(cc2C(=O)N2Cc4ccccc4C[C@H]2CN2CCOCC2)OCO3)cc(C(=O)N(c2ccc(O)cc2)c2cnn(C)c2)c1C [Example 93, N-(4-Hydroxyphenyl)-1-(2-methoxyethyl)-2-methyl-N-(1-methyl-1H-pyrazol-4-yl)-5-(6-{[(3S)-3-(morpholin-4-ylmethyl)-3,4-dihydroisoquinolin-2(1H)-yl]carbonyl}-1,3-benzodioxol-5-yl)-1H-pyrrole-3-carboxamide hydrochloride]",19.7,368
"CCn1c(C#N)cc(N(C(=O)c2cc(-c3cc(Cl)ccc3C(=O)N3Cc4ccccc4C[C@H]3CN3CCOCC3)n(C)c2C)c2ccc(O)cc2)c1C [Example 459, 5-(5-Chloro-2-{[(3S)-3-(morpholin-4-ylmethyl)-3,4-dihydroisoquinolin-2(1H)-yl]carbonyl}phenyl)-N-(5-cyano-1-ethyl-2-methyl-1H-pyrrol-3-yl)-N-(4-hydroxyphenyl)-1,2-dimethyl-1H-pyrrole-3-carboxamide hydrochloride]",2.5,5.93
"Cl.[2H]C([2H])([2H])n1cc(N(C(=O)c2cc(-c3cc(Cl)ccc3C(=O)N3Cc4ccccc4C[C@H]3CN3CCOCC3)n(C)c2C)c2ccc(O)cc2)cc1C#N [Example 448, 5-(5-Chloro-2-{[(3S)-3-(morpholin-4-ylmethyl)-3,4-dihydroisoquinolin-2(1H)-yl]carbonyl}phenyl)-N-[5-cyano-1-(trideuteriomethyl)-1H-pyrrol-3-yl]-N-(4-hydroxyphenyl)-1,2-dimethyl-1H-pyrrole-3-carboxamide hydrochloride]",2.4,12.1
"Cc1c(C(=O)N(c2ccc(O)cc2)c2cccc(C#N)c2)cc(-c2cc(Cl)ccc2C(=O)N2Cc3ccccc3C[C@H]2CN2CCOCC2)n1C [Example 398, 5-(5-Chloro-2-{[(3S)-3-(morpholin-4-ylmethyl)-3,4-dihydroisoquinolin-2(1H)-yl]carbonyl}phenyl)-N-(3-cyanophenyl)-N-(4-hydroxyphenyl)-1,2-dimethyl-1H-pyrrole-3-carboxamide hydrochloride]",3.9,13.4
"Cc1c(C(=O)N(c2ccccc2)c2ccc(O)cc2)cc(-c2cc3c(cc2C(=O)N2Cc4ccccc4C[C@H]2CCN2CCOCC2)OCO3)n1CCO [Example 18, 1-(2-Hydroxyethyl)-N-(4-hydroxyphenyl)-2-methyl-5-(6-{[(3S)-3-[2-(morpholin-4-yl)ethyl]-3,4-dihydroisoquinolin-2(1H)-yl]carbonyl}-1,3-benzodioxol-5-yl)-N-phenyl-1H-pyrrole-3-carboxamide hydrochloride]",3.9,27.6
"CN1CCN(C[C@@H]2Cc3ccccc3CN2C(=O)c2ccc(Cl)cc2-c2cc(C(=O)N(c3ccc(O)cc3)c3ccc4c(ccn4C)c3)cn2C2CC2)CC1 [Example 7, 5-(5-Chloro-2-{[(3S)-3-[(4-methylpiperazin-1-yl)methyl]-3,4-dihydroisoquinolin-2(1H)-yl]carbonyl}phenyl)-1-cyclopropyl-N-(4-hydroxyphenyl)-N-(1-methyl-1H-indol-5-yl)-1H-pyrrole-3-carboxamide]",25.6,90.6
"Cc1c(N(C(=O)c2cc(-c3ccccc3C(=O)N3Cc4ccccc4C[C@H]3CN3CCOCC3)n(C)c2C)c2ccc(O)cc2)cc(C#N)n1C [Example 406, N-(5-Cyano-1,2-dimethyl-1H-pyrrol-3-yl)-N-(4-hydroxyphenyl)-1,2-dimethyl-5-(2-{[(3S)-3-(morpholin-4-ylmethyl)-3,4-dihydroisoquinolin-2(1H)-yl]carbonyl}phenyl)-1H-pyrrole-3-carboxamide hydrochloride]",4.2,10.6
"COc1cc(C(=O)N2Cc3ccccc3C[C@H]2CN2CCOCC2)c(-c2cc(C(=O)N(c3ccc(O)cc3)c3cnc4c(ccn4C)c3)c(C)n2C)cc1F [Example 209, 5-(5-Fluoro-4-methoxy-2-{[(3S)-3-(morpholin-4-ylmethyl)-3,4-dihydroisoquinolin-2(1H)-yl]carbonyl}phenyl)-N-(4-hydroxyphenyl)-1,2-dimethyl-N-(1-methyl-1H-pyrrolo[2,3-b]pyridin-5-yl)-1H-pyrrole-3-carboxamide hydrochloride]",7.4,25.4
"Cc1c(C(=O)N(c2ccc(O)cc2)c2cnn(C)c2)cc(-c2cc3c(cc2C(=O)N2Cc4ccccc4C[C@H]2C)OCO3)n1CCN [Example 30, 1-(2-Aminoethyl)-N-(4-hydroxyphenyl)-2-methyl-5-(6-{[(3R)-3-methyl-3,4-dihydroisoquinolin-2(1H)-yl]carbonyl}-1,3-benzodioxol-5-yl)-N-(1-methyl-1H-pyrazol-4-yl)-1H-pyrrole-3-carboxamide hydrochloride]",4.7,771
"Cc1c(C(=O)N(c2ccc(O)cc2)c2cnn(C3CC3)c2)cc(-c2cc(Cl)ccc2C(=O)N2Cc3ccccc3C[C@H]2CN2CCOCC2)n1C [Example 122, 5-(5-Chloro-2-{[(3S)-3-(morpholin-4-ylmethyl)-3,4-dihydroisoquinolin-2(1H)-yl]carbonyl}phenyl)-N-(1-cyclopropyl-1H-pyrazol-4-yl)-N-(4-hydroxyphenyl)-1,2-dimethyl-1H-pyrrole-3-carboxamide]",3.4,82.4
"Cc1c(C(=O)N(c2ccc(O)cc2)c2cnc3c(c2)CCN3C)cc(-c2cc(F)ccc2C(=O)N2Cc3ccccc3C[C@H]2CN2CCOCC2)n1C [Example 434, 5-(5-Fluoro-2-{[(3S)-3-(morpholin-4-ylmethyl)-3,4-dihydroisoquinolin-2(1H)-yl]carbonyl}phenyl)-N-(4-hydroxyphenyl)-1,2-dimethyl-N-(1-methyl-2,3-dihydro-1H-pyrrolo[2,3-b]pyridin-5-yl)-1H-pyrrole-3-carboxamide hydrochloride]",3.5,45.7
